Experimental data published in patent publication US9918479B2, “Control of phytopathogenic microorganisms with Pseudomonas sp. and substances and compositions derived therefrom” (priority 2012, dated 2018).

tested on: CL145A (ATCC 55799); assay: Antibiotic resistance profile, antibiotic discs on Mueller-Hinton agar; conditions: 72 hours incubation
Protocol: One glycerol stock vial of CL145A was equally distributed onto Mueller-Hinton Agar plates (100 μl per plate) and spread on the plate using a sterile cell spreader. Antibiotic discs were then placed onto the plates along with a blank sterile disc. Plates were incubated at 25° C. in the dark for 72 hours.

Row | Compound | CL145A resistant or sensitive to the antibiotic (growth inhibited by the antibiotic disc)
1 | CC1(C)S[C@@H]2[C@H](NC(=O)[C@H](N)c3ccccc3)C(=O)N2[C@H]1C(=O)O [Ampicillin] | resistant
2 | CO/N=C(\C(=O)N[C@@H]1C(=O)N2C(C(=O)O)=C(COC(N)=O)CS[C@H]12)c1ccco1 [Cefuroxime] | resistant
3 | Gentamicin | sensitive
4 | O=C(N[C@H](CO)[C@H](O)c1ccc([N+](=O)[O-])cc1)C(Cl)Cl [Chloramphenicol] | resistant
5 | Penicillin | resistant
6 | CC[C@H]1OC(=O)[C@H](C)[C@@H](O[C@H]2C[C@@](C)(OC)[C@@H](O)[C@H](C)O2)[C@H](C)[C@@H](O[C@@H]2O[C@H](C)C[C@H](N(C)C)[C@H]2O)[C@](C)(O)C[C@@H](C)C(=O)[C@H](C)[C@@H](O)[C@]1(C)O [Erythromycin] | resistant
7 | CCN1CCN(C(=O)N[C@@H](C(=O)N[C@@H]2C(=O)N3[C@@H]2SC(C)(C)[C@@H]3C(=O)O)c2ccccc2)C(=O)C1=O [Piperacillin] | sensitive
8 | [H]/N=C(/N)N[C@H]1[C@H](O)[C@@H](O)[C@H](O[C@@H]2O[C@@H](C)[C@](O)(C=O)[C@H]2O[C@@H]2O[C@@H](CO)[C@H](O)[C@@H](O)[C@@H]2NC)[C@@H](N/C(N)=N\[H])[C@@H]1O [Streptomycin] | resistant
